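Cultured in 96-well plates, cells were exposed to test compound for 48 hours across five concentrations. Abbreviation: GI50, concentration required for 50% inhibition of growth.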 The source made the active and inactive calls. No stated cut-off is given here; in the data, active = GI50 up to about 1.1 µM and inactive = higher.
Assays:
Assay in all cases: growth of human tumour cells (NCI), 48 h
[1] = tested on: HT-29
[2] = tested on: SN12C
[3] = tested on: IGROV-1
[4] = tested on: A498
[5] = tested on: UACC-62
[6] = tested on: MCF7
[7] = tested on: OVCAR-8
[8] = tested on: BT-549
[9] = tested on: PC-3
[10] = tested on: COLO 205
[11] = tested on: NCI-H522
[12] = tested on: HCT-116
[13] = tested on: EKVX
[14] = tested on: NCI-H23
[15] = tested on: MDA-MB-435
[16] = tested on: NCI-H460
[17] = tested on: NCI-H226
[18] = tested on: HOP-92
[19] = tested on: OVCAR-4
[20] = tested on: SF-539

Measured: GI50

O=C1OC(c2ccccc2)=N/C1=C\c1ccc(Cl)cc1
inactive: [1] > 100 µM | [2] > 100 µM | [3] > 100 µM | [4] > 100 µM | [5] > 100 µM | [6] > 100 µM | [7] > 100 µM | [8] > 100 µM | [9] > 100 µM | [10] > 100 µM | [11] 50.6 µM | [12] > 100 µM | [13] > 100 µM | [14] > 100 µM | [15] > 100 µM | [16] > 100 µM | [17] > 100 µM | [18] > 100 µM | [19] > 100 µM

CCCCCCCc1ccc(-c2nnc(/N=N/c3ccc(OCCCCC)cc3)s2)s1
inactive: [20] > 100 µM | [1] > 100 µM | [2] > 100 µM | [3] 79.1 µM | [4] > 100 µM | [5] > 100 µM | [6] > 100 µM | [8] > 100 µM | [9] > 100 µM | [10] > 100 µM | [11] > 100 µM | [12] > 100 µM | [13] > 100 µM | [14] > 100 µM | [15] > 100 µM | [16] > 100 µM | [17] > 100 µM | [19] > 100 µM

CCOP(=O)(Nc1ccccc1P(=O)(OCC)OCC)OCC
inactive: [1] > 100 µM | [3] > 100 µM | [4] > 100 µM | [5] > 100 µM | [6] > 100 µM | [7] > 100 µM | [8] > 100 µM | [9] > 100 µM | [10] > 100 µM | [11] > 100 µM | [12] > 100 µM | [13] > 100 µM | [14] > 100 µM | [15] > 100 µM | [16] > 100 µM | [18] > 100 µM | [19] > 100 µM

c1ccc(COc2ncccc2C2SCCCS2)cc1
inactive: [20] 67.3 µM | [2] > 100 µM | [3] > 100 µM | [4] > 100 µM | [5] > 100 µM | [6] 84.3 µM | [7] > 100 µM | [8] > 100 µM | [9] > 100 µM | [10] > 100 µM | [11] > 100 µM | [12] > 100 µM | [13] > 100 µM | [14] > 100 µM | [15] > 100 µM | [17] > 100 µM | [18] > 100 µM | [19] > 100 µM

CCOC(=O)c1c(N2CCOCC2)[nH]c(=O)c(C(c2c(O)c(C(=O)OCC)c(N3CCOCC3)[nH]c2=O)C(C)C)c1O
inactive: [20] > 100 µM | [1] > 100 µM | [2] > 100 µM | [4] > 100 µM | [5] > 100 µM | [6] > 100 µM | [7] > 100 µM | [8] > 100 µM | [9] > 100 µM | [10] > 100 µM | [11] > 100 µM | [12] > 100 µM | [13] > 100 µM | [14] > 100 µM | [15] > 100 µM | [16] > 100 µM | [17] > 100 µM | [18] 80.5 µM | [19] > 100 µM

CC(CCCCNC(=O)OC(C)(C)C)NC(=O)NC(C)CCCCNC(=O)OC(C)(C)C (stereo not given)
inactive: [1] > 100 µM | [2] > 100 µM | [3] > 100 µM | [4] > 100 µM | [5] 73.6 µM | [6] 95.3 µM | [7] > 100 µM | [8] > 100 µM | [9] > 100 µM | [10] 56.6 µM | [11] > 100 µM | [12] 50.7 µM | [13] > 100 µM | [14] > 100 µM | [15] > 100 µM | [16] > 100 µM | [17] 54 µM | [18] > 100 µM | [19] 81.5 µM

NNC(=O)C(O)C(O)C(O)CO (stereo not given)
inactive: [1] > 100 µM | [2] > 100 µM | [3] > 100 µM | [4] > 100 µM | [5] > 100 µM | [6] > 100 µM | [7] > 100 µM | [8] > 100 µM | [9] > 100 µM | [10] > 100 µM | [11] > 100 µM | [12] > 100 µM | [13] > 100 µM | [14] > 100 µM | [15] > 100 µM | [16] > 100 µM | [17] > 100 µM | [18] > 100 µM | [19] > 100 µM

CCOC(=O)c1c(N2CCOCC2)[nH]c(=O)c(C(c2ccc(Cl)c([N+](=O)[O-])c2)c2c(O)c(C(=O)OCC)c(N3CCOCC3)[nH]c2=O)c1O
inactive: [20] 26.5 µM | [1] 20.9 µM | [2] 20.5 µM | [4] > 100 µM | [5] 40.1 µM | [6] 22 µM | [7] 18.4 µM | [8] 24.4 µM | [9] 14.2 µM | [10] > 100 µM | [11] 28 µM | [12] 20.3 µM | [13] > 100 µM | [14] 25.8 µM | [15] 30.6 µM | [16] > 100 µM | [17] > 100 µM | [18] 23.9 µM | [19] 42.8 µM

COc1cc2c(cc1OC)OC(c1c(OC)ccc(OC)c1O)CC2 (stereo not given)
inactive: [20] 73.6 µM | [1] > 100 µM | [3] > 100 µM | [4] > 100 µM | [5] > 100 µM | [6] 78.2 µM | [7] > 100 µM | [8] > 100 µM | [9] > 100 µM | [10] 91.4 µM | [12] > 100 µM | [13] > 100 µM | [14] > 100 µM | [15] > 100 µM | [16] > 100 µM | [17] > 100 µM | [18] > 100 µM | [19] 87.3 µM

CCCCOC(=O)C(NC(C(=O)OCCCC)c1cc(C(C)(C)C)c(O)c(C(C)(C)C)c1)c1cc(C(C)(C)C)c(O)c(C(C)(C)C)c1 (stereo not given)
inactive: [20] > 100 µM | [1] 76 µM | [2] > 100 µM | [3] > 100 µM | [4] > 100 µM | [5] > 100 µM | [6] > 100 µM | [7] > 100 µM | [8] > 100 µM | [9] > 100 µM | [10] > 100 µM | [11] > 100 µM | [12] 77.1 µM | [13] > 100 µM | [14] > 100 µM | [15] > 100 µM | [17] > 100 µM | [18] 75 µM | [19] > 100 µM
